Measurements as given in the supplement of paper PMC10307832.

Columns and labels:
Assay in all cases: relative viability (nuclei count vs DMSO), 5 days (fraction); higher = more cells survive
[1] = compound: CO[C@@H]1[C@H](N(C)C(=O)c2ccccc2)C[C@H]2O[C@]1(C)n1c3ccccc3c3c4c(c5c6ccccc6n2c5c31)C(=O)NC4 [Midostaurin] + CC(=O)c1c(C)c2cnc(Nc3ccc(N4CCNCC4)cn3)nc2n(C2CCCC2)c1=O [Palbociclib] (partner 0.5 µM)
Method in brief: (§1)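 Relative viability was taken as the ratio of nuclei in treated wells to nuclei in vehicle wells. Lung cancer cell lines in 1536-well plates received compounds by pin tool one day after seeding, either one drug alone or a fixed anchor-drug dose plus five library-drug doses (not always all listed) in √10 steps. Nuclei were counted on 4× images after 5 days of treatment, and values are medians of duplicate plates.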

Midostaurin + Bortezomib = compound: CO[C@@H]1[C@H](N(C)C(=O)c2ccccc2)C[C@H]2O[C@]1(C)n1c3ccccc3c3c4c(c5c6ccccc6n2c5c31)C(=O)NC4 [Midostaurin] + CC(C)C[C@H](NC(=O)[C@H](Cc1ccccc1)NC(=O)c1cnccn1)B(O)O [Bortezomib] (partner 0.002 µM)
Method in brief: as §1

Midostaurin + Crizotinib = compound: CO[C@@H]1[C@H](N(C)C(=O)c2ccccc2)C[C@H]2O[C@]1(C)n1c3ccccc3c3c4c(c5c6ccccc6n2c5c31)C(=O)NC4 [Midostaurin] + C[C@@H](Oc1cc(-c2cnn(C3CCNCC3)c2)cnc1N)c1c(Cl)ccc(F)c1Cl [Crizotinib] (partner 1 µM)
Method in brief: as §1

[2] = compound: COc1cc(-c2nn([C@H]3CC[C@H](N4CCN(C(C)=O)CC4)CC3)c3ncnc(N)c23)ccc1NC(=O)c1cc2ccccc2n1C + CC(C)C[C@H](NC(=O)[C@H](Cc1ccccc1)NC(=O)c1cnccn1)B(O)O [Bortezomib] (partner 0.002 µM)
Method in brief: as §1

[3] = compound: COc1cc(-c2nn([C@H]3CC[C@H](N4CCN(C(C)=O)CC4)CC3)c3ncnc(N)c23)ccc1NC(=O)c1cc2ccccc2n1C + CS(=O)(=O)N1CCN(Cc2cc3nc(-c4cccc5[nH]ncc45)nc(N4CCOCC4)c3s2)CC1 [Pictilisib] (partner 1 µM)
Method in brief: as §1

Cell Line | relative viability ([1]; first compound 0.01 µM) | relative viability ([1]; first compound 0.03162 µM) | relative viability ([1]; first compound 0.1 µM) | relative viability ([1]; first compound 0.3162 µM) | relative viability (Midostaurin + Bortezomib; first compound 0.01 µM) | relative viability (Midostaurin + Bortezomib; first compound 0.03162 µM) | relative viability (Midostaurin + Bortezomib; first compound 0.1 µM) | relative viability (Midostaurin + Bortezomib; first compound 0.3162 µM) | relative viability (Midostaurin + Crizotinib; first compound 0.01 µM) | relative viability (Midostaurin + Crizotinib; first compound 0.03162 µM) | relative viability (Midostaurin + Crizotinib; first compound 0.1 µM) | relative viability (Midostaurin + Crizotinib; first compound 0.3162 µM) | relative viability ([2]; first compound 0.0128 µM) | relative viability ([2]; first compound 0.04048 µM) | relative viability ([2]; first compound 0.128 µM) | relative viability ([2]; first compound 1.28 µM) | relative viability ([3]; first compound 0.0128 µM) | relative viability ([3]; first compound 0.04048 µM) | relative viability ([3]; first compound 0.128 µM) | relative viability ([3]; first compound 1.28 µM)
LU99A | 0.386 | 0.513 | 0.371 | 0.386 | 1.08 | 1.17 | 1.1 | 0.998 | 0.603 | 0.634 | 0.541 | 0.533 | 1.34 | 1.19 | 1.04 | 1.3 | 0.357 | 0.385 | 0.391 | 0.326
SW 1573 | 0.422 | 0.504 | 0.424 | 0.247 | 0.966 | 0.988 | 1.15 | 1.05 | 0.704 | 1.01 | 0.782 | 0.631 | 0.956 | 1.11 | 0.98 | 0.8 | 0.496 | 0.497 | 0.497 | 0.362
NCI-H2347 | 0.442 | 0.449 | 0.395 | 0.404 | 0.842 | 0.95 | 0.956 | 0.976 | 0.678 | 0.684 | 0.802 | 0.808 | 0.82 | 1.07 | 1.15 | 0.697 | 0.754 | 0.579 | 0.772 | 0.414
NCI-H2009 | 0.175 | 0.192 | 0.287 | 0.404 | 0.882 | 0.981 | 0.942 | 0.809 | 1.07 | 0.98 | 0.996 | 1.06 | 1.14 | 0.555 | 1.06 | 0.962 | 0.783 | 0.303 | 0.649 | 0.578
HCC-15 | 0.806 | 0.788 | 0.771 | 0.73 | 1.04 | 0.946 | 0.999 | 1.08 | 0.842 | 0.829 | 0.841 | 0.847 | 1.25 | 1 | 0.963 | 1.11 | 0.854 | 0.369 | 0.657 | 0.647
HCC-44 | 1.01 | 1.02 | 0.942 | 0.99 | 0.84 | 0.881 | 0.796 | 0.762 | 0.747 | 0.787 | 0.697 | 0.627 | 0.993 | 0.886 | 0.897 | 1.27 | 0.675 | 0.67 | 0.542 | 0.542
COR-L23 | 0.259 | 0.346 | 0.285 | 0.207 | 0.871 | 0.957 | 0.936 | 0.81 | 0.653 | 0.633 | 0.541 | 0.464 | 0.991 | 1.4 | 0.873 | 0.908 | 0.919 | 0.666 | 0.801 | 0.839
HCC-78 | 0.536 | 0.474 | 0.474 | 0.469 | 0.431 | 0.45 | 0.474 | 0.328 | 0.363 | 0.288 | 0.38 | 0.329 | 0.547 | 0.724 | 0.566 | 0.43 | 0.23 | 0.181 | 0.21 | 0.196
NCI-H727 | 0.628 | 0.666 | 0.66 | 0.634 | 0.906 | 0.81 | 0.771 | 0.795 | 0.861 | 0.524 | 0.729 | 0.459 | 0.834 | – | 0.808 | 1.06 | 0.355 | – | 0.401 | 0.301
NCI-H2087 | 0.213 | 0.232 | 0.268 | 0.27 | 0.827 | 0.717 | 0.542 | 0.841 | 0.794 | 0.655 | 0.835 | 0.656 | 0.855 | 0.772 | 0.869 | 0.991 | 1.06 | 0.399 | 0.842 | 0.753
BEN | 0.515 | 0.473 | 0.52 | 0.467 | 0.797 | 0.841 | 0.909 | 1.09 | 1.12 | 0.889 | 1.17 | 0.935 | 0.667 | 0.765 | 0.824 | 0.53 | 0.559 | 0.54 | 0.58 | 0.432
LCLC-103H | 0.449 | 0.484 | 0.512 | 0.542 | 1.07 | 0.924 | 1.02 | 1.1 | 1.05 | 1.01 | 0.982 | 1.02 | 1.16 | 1.13 | 1.15 | 0.99 | 0.656 | 0.691 | 0.571 | 0.49
EKVX | 0.443 | 0.45 | 0.362 | 0.401 | 1.01 | 0.995 | 0.947 | 0.9 | 1.07 | 0.988 | 0.868 | 0.929 | 1.07 | 1.1 | 0.917 | 0.401 | 0.458 | 0.475 | 0.401 | 0.245
LXF-289 | 0.625 | 0.615 | 0.645 | 0.642 | 0.997 | 0.97 | 0.967 | 0.974 | 0.815 | 0.78 | 0.764 | 0.831 | 1.07 | 0.963 | 1 | 1.18 | 0.827 | 0.586 | 0.775 | 0.509
ABC-1 | 0.709 | 1.01 | 0.679 | 0.559 | 0.316 | 0.289 | 0.285 | 0.292 | 0.981 | 1.28 | 1.12 | 0.582 | 0.212 | 0.32 | 0.26 | 0.3 | 0.805 | 0.648 | 0.613 | 0.631
